Results on 22 compounds are retold here after article PMC7918538 (Pharmaceuticals, 2021).

In brackets after ≈: the same amount, converted by molar mass. Several values for one entry are separate records, joined by “and”; a condition that tells them apart may be missing. Equal values may be shown once. Read-outs that look alike come from different tables or passages of the source.

Series [1] has as its target T1, Recombinant M. tuberculosis MbtI (Mycobacterium tuberculosis, UniProt P9WFX1).
T1 construct: made in house
The series can be described thus: MbtI enzymatic inhibition assay (fluorimetric, salicylic acid formation). Type of series: biochemical. The settings on record: for activity against MbtI (in words): discussion of Table 1. On the procedure: Recombinant M. tuberculosis MbtI was produced and purified as previously reported. Enzyme activity was determined at 37 °C, measuring the formation of salicylic acid by a fluorimetric assay, slightly modified from Vasan et al.. Briefly, the reactions were performed in a final volume of 400 μL of 50 mM Hepes pH 7.5, 5 mM MgCl2, containing 1-2 μM MbtI, by the addition of chorismic acid, and monitored using a Perkin-Elmer LS3 fluorimeter (Ex. λ = 305 nm, Em. λ = 420 nm). Inhibition assays were performed in the presence of the compound at 100 µM (stock solution 20 mM in DMSO) and 50 µM chorismic acid. Where possible, compounds were tested both as free acids and sodium salts, providing analogous results. […] To this end, the activity was measured at different compound concentrations, and values were calculated according to Equation (1), with Origin 8 software:(1) A[I] = A[0] × (1 −[I]/[I] + IC50) where A[I] is the activity at inhibitor concentration [I] and A[0] is the activity in the absence of the inhibitor.
The Ki was determined at different substrate [S] and compound concentrations, using Equation (2):(2) v = Vmax[S]/[S] + Km (1 + [I]/Ki)

The test system of series [2] is M. bovis BCG. In words: microbe, parasite or virus in culture. In kind it is cell-based.
Series [3] concerns M. bovis BCG. Particulars: previous lead I given for comparison; cited from earlier work.
Series [4] deals with T1, Recombinant M. tuberculosis MbtI. Particulars: cited from earlier work; for %RA (% residual enzymatic activity at 100 µM): previous furan leads I and II shown in Table 1 for comparison.
The subject of another series is eukaryotic cells. Set-up: method as in PMID 32530281, PMID 30889995, PMID 29940465, PMID 29933627. The settings on record: previous leads; cited from earlier work.
Setting [5] is: Series A R = m-CNPh, compound 100 µM, 50 µM chorismic acid, read-out: %RA (% residual enzymatic activity at 100 µM).
Where [6] appears, read: Series A R = m-CNPh, only for compounds with %RA ≤ 25%, read-out: IC50.
Where [7] appears, read: Table 2, furans IV–IX, compound 100 µM, 50 µM chorismic acid, read-out: % RA (% residual enzymatic activity at 100 µM).
Setting [8] is: Table 2, furans IV–IX, only for compounds with %RA ≤ 25%, read-out: IC50.
Where [9] appears, read: rounded value, read-out: IC50 against MbtI.
Where [10] appears, read: Series B R = p-NO2Ph, compound 100 µM, 50 µM chorismic acid, read-out: %RA (% residual enzymatic activity at 100 µM).
[11] abbreviates: Series B R = p-NO2Ph, only for compounds with %RA ≤ 25%, read-out: IC50.
Setting [12] is: compound 100 µM, rounded value, read-out: % residual enzymatic activity (%RA) at 100 µM.

T1 sequence (P9WFX1 whole entry): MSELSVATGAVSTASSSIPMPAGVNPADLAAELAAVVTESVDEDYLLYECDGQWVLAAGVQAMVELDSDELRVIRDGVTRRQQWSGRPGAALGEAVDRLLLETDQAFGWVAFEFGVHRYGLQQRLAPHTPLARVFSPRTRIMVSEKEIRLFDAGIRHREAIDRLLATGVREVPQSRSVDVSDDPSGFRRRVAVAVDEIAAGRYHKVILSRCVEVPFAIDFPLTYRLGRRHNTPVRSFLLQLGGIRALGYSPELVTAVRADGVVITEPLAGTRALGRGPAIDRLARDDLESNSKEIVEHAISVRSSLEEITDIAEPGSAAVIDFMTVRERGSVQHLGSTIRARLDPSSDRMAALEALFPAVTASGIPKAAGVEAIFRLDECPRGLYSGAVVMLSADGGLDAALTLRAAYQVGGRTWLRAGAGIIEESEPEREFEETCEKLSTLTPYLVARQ

`N#Cc1cccc(-c2cnc(C(=O)[O-])s2)c1.[Na+]` [2a, Sodium 5-(3-cyanophenyl)thiazole-2-carboxylate]: the melting point – broadly, the temperature, or range, at which the solid turns liquid – is > 300 °C (dec.). Further, the remaining activity at 100 µM in series [1] (setting [5]) was determined as 24.8 ± 1.8%. For the same compound, the IC50 (as a rule, the concentration that gives 50% inhibition) in series [1] (setting [6]) was determined as 41.9 ± 7.3 µM. For the same compound, the “activity against MbtI (in words)” value in series [1] is “weaker inhibitors”.
`O=C(O)c1ccc(-c2cc(C(F)(F)F)cc(C(F)(F)F)c2)o1` [V, 5-(3,5-Bis(trifluoromethyl)phenyl)furan-2-carboxylic acid]: in series [1] (setting [7]), the remaining activity at 100 µM amounted to 8.9 ± 1.6%. Moreover, the values for the IC50 in series [1] (setting [8]) and in series [1] (setting [9]) were 18.8 ± 6.8 µM and approximately 19 µM, respectively.
Take `N#Cc1cc(-c2ccc(C(=O)O)o2)cc(C(F)(F)F)c1` [IV, 5-(3-Cyano-5-(trifluoromethyl)phenyl)furan-2-carboxylic acid]: the remaining activity at 100 µM in series [1] (setting [7]) was 0.7 ± 2.7%; in series [1] (read-out: % residual enzymatic activity (%RA) at 100 µM), approximately 1%. Besides, the values for the IC50 in series [1] (setting [8]) and in series [1] (setting [9]) were 15.5 ± 3.1 µM and approximately 15 µM, respectively. The Ki (in general, the dissociation constant of the complex between target and ligand, obtained from inhibition or displacement) in series [1] (kinetic analysis at different chorismic acid and compound concentrations) was 9.2 µM and ~9 µM. Moreover, the “nature of inhibition against MbtI” value in series [1] (steady-state kinetics towards chorismic acid) is given as “competitive inhibitor”. In addition, the MIC99 with M. bovis BCG [2] (M. bovis BCG, iron-limiting conditions (chelated Sauton's medium), REMA) amounted to 125 µM (≈ 35.1 µg/mL); in the series with M. bovis BCG [2] (Mycobacterium tuberculosis variant bovis BCG, BCG), 125 µM (≈ 35.1 µg/mL).
Take `O=C([O-])c1ncc(-c2ccc([N+](=O)[O-])cc2)o1.[Na+]` [3b, Sodium 5-(4-nitrophenyl)oxazole-2-carboxylate]: the melting point was > 300 °C (dec.). Also, the remaining activity at 100 µM in series [1] (setting [10]) turned out to be 23 ± 7.8%. The IC50 in series [1] (setting [11]) was found to be 21.1 ± 2.7 µM. In series [1], the “activity against MbtI (in words)” value was “modest activity”.
For the compound `N#Cc1cc(F)cc(-c2ccc(C(=O)O)o2)c1` [VI, 5-(3-cyano-5-fluorophenyl)furan-2-carboxylic acid], in series [1] (setting [7]), the remaining activity at 100 µM was found to be 8.7 ± 1.4%. For the same compound, the concentration for half-maximal inhibition (IC50) in series [1] (setting [8]) amounted to 17.3 ± 3.1 µM.
Consider `O=C(O)c1nnc(-c2ccc([N+](=O)[O-])cc2)o1` [5b, 5-(4-Nitrophenyl)-1,3,4-oxadiazole-2-carboxylic acid], for which the melting point is 220 °C (dec.). Further, the remaining activity at 100 µM in series [1] (setting [10]) stood at 59 ± 4.3%.
For the compound `N#Cc1cccc(-n2cc(C(=O)O)nn2)c1` [6a, 1-(3-Cyanophenyl)-1H-1,2,3-triazole-4-carboxylic acid], the remaining activity at 100 µM in series [1] (setting [5]) amounted to 67.9 ± 6.6%.
`N#Cc1cccc(-c2nnc(C(=O)O)o2)c1` [5a, 5-(3-Cyanophenyl)-1,3,4-oxadiazole-2-carboxylic acid]: the melting point was 222 °C (dec.). Moreover, in series [1] (setting [5]), the remaining activity at 100 µM was found to be 75 ± 9.8%.
The compound `O=C(O)c1ncc(-c2ccc([N+](=O)[O-])cc2)[nH]1` [4b, 5-(4-Nitrophenyl)-1H-imidazole-2-carboxylic acid] showed a melting point of 137 °C. Moreover, in series [1] (setting [10]), the remaining activity at 100 µM came out at 18.2 ± 4.9%. In addition, the IC50 in series [1] (setting [11]) stood at 27.5 ± 2.3 µM. In series [1], the “activity against MbtI (in words)” value is given as “weak activity”.
Turning to `N#Cc1cccc(-c2ccc(C(=O)O)s2)c1` [1a, 5-(3-Cyanophenyl)thiophene-2-carboxylic acid], the melting point worked out at 207 °C. The remaining activity at 100 µM in series [1] (setting [5]) worked out at 23.7 ± 5%. Further, the IC50 in series [1] (setting [6]) was found to be 35.5 ± 1.9 µM. In addition, the remaining activity at 100 µM in series [1] (setting [12]) is approximately 23%.
With `N#Cc1cc(O)cc(-c2ccc(C(=O)O)o2)c1` [IX, 5-(3-cyano-5-hydroxyphenyl)furan-2-carboxylic acid], in series [1] (setting [7]), the remaining activity at 100 µM is 15.3 ± 2.6%. The IC50 is 33.5 ± 3.4 µM in series [1] (setting [8]) and approximately 33 µM in series [1] (setting [9]).
Consider `N#Cc1cccc(-c2ccc(C(=O)O)o2)c1` [I], for which the MIC99 in the series with M. bovis BCG [3] is 250 µM (≈ 53.3 µg/mL). In addition, in series [4], the “%RA (% residual enzymatic activity at 100 µM)” value is listed as 3.1 ± 1.0%. Further, the “cytotoxicity towards eukaryotic cells (in words)” value with eukaryotic cells is “negligible cytotoxicity”.
Consider `O=C(O)c1ccc(-c2ccc([N+](=O)[O-])cc2)s1` [1b, 5-(4-Nitrophenyl)thiophene-2-carboxylic acid], for which the melting point worked out at 189 °C. Besides, in series [1] (setting [10]), the remaining activity at 100 µM stood at 22.5 ± 10.8%. Moreover, the IC50 in series [1] (setting [11]) was found to be 18.6 ± 1.7 µM. Besides, in series [1] (setting [12]), the remaining activity at 100 µM was approximately 23%.
Take `O=C(O)c1ccc(-c2ccccc2)o1` [III]: in series [4] (removal of the substituent from the phenyl ring), the “MbtI activity (in words)” value is given as “complete loss of activity”.
On to `O=C(O)c1ccc(-c2ccc([N+](=O)[O-])cc2)o1` [II], for which the “%RA (% residual enzymatic activity at 100 µM)” value in series [4] is listed as 18.2 ± 5.1%. The “cytotoxicity towards eukaryotic cells (in words)” value in the series on eukaryotic cells was “negligible cytotoxicity”.
As to `N#Cc1cccc(-c2cnc(C(=O)O)[nH]2)c1` [4a, 5-(3-Cyanophenyl)-1H-imidazole-2-carboxylic acid], the melting point worked out at 165 °C. Also, the remaining activity at 100 µM in series [1] (setting [5]) was 21.2 ± 1%. The IC50 in series [1] (setting [6]) was determined as 39.3 ± 3 µM. Also, the “activity against MbtI (in words)” value in series [1] is “weak activity”.
In the case of `N#Cc1cc(C(F)(F)F)ccc1-c1ccc(C(=O)O)o1` [5-(2-cyano-4-(trifluoromethyl)phenyl)furan-2-carboxylic acid], the IC50 in series [4] (previously published disubstituted furans, read-out: IC50 against MbtI) is approximately 18 µM.
The compound `O=C(O)c1cn(-c2ccc([N+](=O)[O-])cc2)nn1` [6b, 1-(4-Nitrophenyl)-1H-1,2,3-triazole-4-carboxylic acid] gave a melting point of 175 °C. In series [1] (setting [10]), the remaining activity at 100 µM was 32.7 ± 7.8%.
Turning to `O=C([O-])c1ncc(-c2ccc([N+](=O)[O-])cc2)s1.[Na+]` [2b, Sodium 5-(4-nitrophenyl)thiazole-2-carboxylate], the melting point is > 300 °C (dec.). Besides, the remaining activity at 100 µM in series [1] (setting [10]) is 32.8 ± 2.3%. Moreover, the “activity against MbtI (in words)” value in series [1] is recorded as “weaker inhibitors”.
With `Cc1cc(C#N)cc(-c2ccc(C(=O)O)o2)c1` [VIII, 5-(3-cyano-5-methylphenyl)furan-2-carboxylic acid], in series [1] (setting [7]), the remaining activity at 100 µM was 16.7 ± 3.8%. Also, the IC50 in series [1] (setting [8]) was 29.1 ± 1.8 µM; in series [1] (setting [9]), approximately 29 µM.
Turning to `N#Cc1cccc(-c2cnc(C(=O)[O-])o2)c1.[Na+]` [3a, Sodium 5-(3-cyanophenyl)oxazole-2-carboxylate], the melting point is > 300 °C (dec.). Moreover, the remaining activity at 100 µM in series [1] (setting [5]) came out at 38 ± 7.6%. Moreover, the “activity against MbtI (in words)” value in series [1] was “negligible activity”.
On to `COc1cc(C#N)cc(-c2ccc(C(=O)O)o2)c1` [VII, 5-(3-Cyano-5-methoxyphenyl)furan-2-carboxylic acid], for which the remaining activity at 100 µM in series [1] (setting [7]) came to 10.5 ± 3.9%. In addition, the IC50 in series [1] (setting [8]) was found to be 14.5 ± 2.1 µM. For the same compound, the “activity against MbtI (in words)” value in series [1] is recorded as “comparable IC50 with respect to IV”.
